Where two headings read alike, the source gives them in different places.
Experiments:
[1] = Dispersant binding reversibility: successive filtrations and re-dispersions in HEPES, followed by DLS; type: physicochemical; settings: room temperature, anchor named, coupled to PEG(MW 5 kDa)
Procedure: DLS: DLS experiments were run on a Zetasizer Nano ZS (Malvern, UK) in the 173° backscattering mode. Because intensity weighted diameters scale with r^6 and thus large particles are predominant, volume weighted data which scale with r^3 were analyzed using the multiple narrow modes evaluation incorporated into the Malvern software. Temperature dependent DLS experiments have been performed in HEPES at an iron oxide nanoparticle concentration of 200 µg/ml. Solutions were filtered with 200 nm Minisart syringe filters (Sartorius, Germany) prior to DLS analysis. These suspensions were heated from 25 to 90°C in 5°C steps with 10 min equilibration time before the respective DLS experiment. The dispersant binding reversibility was tested on iron oxide nanoparticle HEPES solutions (500 µg/ml) at room temperature. Solutions were repeatedly filtered using Microcon filters with a cut-off of 30 kDa (Millipore, MA, USA) by centrifuging these solutions at […] for 20 min (MiniSpin, Vaudaux Eppendorf, Switzerland). After filtration, the filter cake was re-suspended in HEPES (0.5 ml) and equilibrated for 24 h at room temperature before the next DLS experiment was performed.
The binding reversibility of these dispersants was tested by successive filtrations and re-dispersions of the resulting iron oxide nanoparticle filter cakes in HEPES

[2] = pKa determination by titration; type: physicochemical; settings: titration in Millipore water containing 150 mM NaCl, for nitrocatechols and mimosine one of the pKa values
Procedure: pKa determination: 2 mM of the respective anchoring group was dissolved in Millipore water containing 150 mM NaCl. These solutions were titrated with 0.1 M HCl and NaOH respectively using a SevenMulti pH meter (Mettler Toledo, Switzerland).

Row | Compound | number of filtrations within which nanoparticles agglomerated [1] | pKa ([2]; read-out: pKa) | pKa [2] | number of filtrations for which nanoparticles remained stable [1]
1 | NCCc1ccc(O)c(O)c1 [dopamine] | 0-3 filtrations | > 9 | – | –
2 | NC(Cn1ccc(=O)c(O)c1)C(=O)O (stereo not shown) [mimosine] | 5-7 filtrations | ~6.5 | – | –
3 | hydroxydopamine | 0-3 filtrations | – | > 9 | –
4 | hydroxypyrone | 0-3 filtrations | – | – | –
5 | hydroxypyridine | 0-3 filtrations | – | – | –
6 | NCCc1cc(O)c(O)cc1[N+](=O)[O-] [nitrodopamine] | – | – | around 6.5 | –
7 | NC(Cc1cc(O)c(O)cc1[N+](=O)[O-])C(=O)O (stereo not shown) | – | ~6.5 | – | more than 9 filtrations
8 | N[C@@H](Cc1ccc(O)c(O)c1)C(=O)O [DOPA] | 5-7 filtrations | > 9 | – | –

Reference: patent publication EP2289553A1 (ETH Zurich, priority 2009, dated 2011)
